Measurements published in patent US20250099423A1, “PIPERAZINE-BASED AGONISTS OF LFA-1 AND VLA-4” (Texas Heart Institute, priority 2021, published 2025).
One block for each compound: values may come before it.

Experiments:
LFA-1 = target: T1, LFA-1 (Homo sapiens, UniProt P05107+P20701); assay: Static cell adhesion assay, HSB cells on ICAM-1 (αLβ2/ICAM-1; LFA-1); type: cell-based; details: Dose 3 μM, compound and THI0349 at the same concentration; ratio >1 = more potent agonist
T1 construct: The Jurkat (VCAM-1 assays) and HSB (ICAM-1 assays) cell lines were obtained from American Type Culture Collection; endogenous in cells; host or cells: HSB cells (ATCC)
T1 sequence (P20701 26-1170): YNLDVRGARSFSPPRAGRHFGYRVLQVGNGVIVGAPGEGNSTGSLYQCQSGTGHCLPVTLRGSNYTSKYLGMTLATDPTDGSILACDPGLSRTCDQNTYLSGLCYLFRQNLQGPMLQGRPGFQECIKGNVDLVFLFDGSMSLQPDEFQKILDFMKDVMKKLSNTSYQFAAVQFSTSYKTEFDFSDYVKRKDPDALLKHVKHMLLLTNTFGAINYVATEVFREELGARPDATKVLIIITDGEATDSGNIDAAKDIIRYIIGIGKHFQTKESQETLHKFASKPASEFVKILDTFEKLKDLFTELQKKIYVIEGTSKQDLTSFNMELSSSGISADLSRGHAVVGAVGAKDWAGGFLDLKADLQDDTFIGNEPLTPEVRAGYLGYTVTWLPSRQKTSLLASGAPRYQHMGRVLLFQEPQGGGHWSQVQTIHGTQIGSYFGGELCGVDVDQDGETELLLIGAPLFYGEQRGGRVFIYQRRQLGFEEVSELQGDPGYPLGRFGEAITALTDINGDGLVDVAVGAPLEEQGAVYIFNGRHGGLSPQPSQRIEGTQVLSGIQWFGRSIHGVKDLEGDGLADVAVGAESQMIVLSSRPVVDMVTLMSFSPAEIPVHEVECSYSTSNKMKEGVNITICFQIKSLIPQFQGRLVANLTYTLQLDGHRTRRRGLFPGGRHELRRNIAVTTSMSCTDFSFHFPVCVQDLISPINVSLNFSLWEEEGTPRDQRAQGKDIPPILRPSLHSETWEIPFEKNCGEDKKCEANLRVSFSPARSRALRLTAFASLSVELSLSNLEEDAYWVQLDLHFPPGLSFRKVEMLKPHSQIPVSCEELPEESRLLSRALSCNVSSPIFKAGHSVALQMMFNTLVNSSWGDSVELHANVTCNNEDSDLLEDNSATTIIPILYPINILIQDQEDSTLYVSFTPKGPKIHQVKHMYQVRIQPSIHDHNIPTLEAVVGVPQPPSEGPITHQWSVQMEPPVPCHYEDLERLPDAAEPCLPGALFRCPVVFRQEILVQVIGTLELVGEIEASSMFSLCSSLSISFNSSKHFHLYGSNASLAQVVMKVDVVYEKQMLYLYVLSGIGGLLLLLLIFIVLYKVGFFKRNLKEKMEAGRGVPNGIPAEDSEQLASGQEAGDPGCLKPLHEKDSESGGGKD
T1 sequence (P05107 23-769): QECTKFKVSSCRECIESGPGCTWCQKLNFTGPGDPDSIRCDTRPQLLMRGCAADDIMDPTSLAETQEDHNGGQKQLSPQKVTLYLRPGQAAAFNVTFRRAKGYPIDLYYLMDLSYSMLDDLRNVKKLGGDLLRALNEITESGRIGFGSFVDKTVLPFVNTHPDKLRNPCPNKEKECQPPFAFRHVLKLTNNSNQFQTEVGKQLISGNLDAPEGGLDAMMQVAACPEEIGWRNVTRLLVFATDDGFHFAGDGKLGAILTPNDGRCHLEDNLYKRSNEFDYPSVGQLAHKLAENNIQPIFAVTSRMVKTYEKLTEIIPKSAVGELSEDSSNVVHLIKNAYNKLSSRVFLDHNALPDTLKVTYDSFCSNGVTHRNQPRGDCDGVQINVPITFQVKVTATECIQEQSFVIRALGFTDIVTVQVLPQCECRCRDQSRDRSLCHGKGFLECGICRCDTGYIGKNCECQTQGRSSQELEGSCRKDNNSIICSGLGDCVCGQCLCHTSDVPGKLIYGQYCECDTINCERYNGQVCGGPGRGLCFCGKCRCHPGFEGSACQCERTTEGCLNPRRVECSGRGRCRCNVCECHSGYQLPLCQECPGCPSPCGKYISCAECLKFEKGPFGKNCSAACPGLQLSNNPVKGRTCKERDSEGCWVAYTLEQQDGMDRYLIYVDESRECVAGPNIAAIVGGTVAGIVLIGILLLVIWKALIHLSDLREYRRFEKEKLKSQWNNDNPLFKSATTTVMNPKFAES
Experimental: (§1) For in vitro cell adhesion assays, compounds were dissolved in DMSO to make a series of stock solutions such that a 1:100 dilution in assay buffer would yield the desired final working concentrations in 1% DMSO (vehicle). Human VCAM-1 and ICAM-1 were purchased from R&D Systems (Minneapolis, MN). The Jurkat (VCAM-1 assays) and HSB (ICAM-1 assays) cell lines were obtained from American Type Culture Collection (Manassas, VA) and were maintained in recommended culture media.
(§2) Assays were performed as previously described in 1. Vanderslice, P., Woodside, D. G., Caivano, A. R., Decker, E. R., Munsch, C. L., Sherwood, S. J., Lejeune, W. S., Miyamoto, Y. J., McIntyre, B. W., Tilton, R. G., and Dixon, R. A. (2010) Potent in vivo suppression of inflammation by selectively targeting the high affinity conformation of integrin alpha4beta1. Biochem Biophys Res Commun 400, 619-624; and 2. Vanderslice, P., Biediger, R. J., Woodside, D. G., Brown, W. S., Khounlo, S., Warier, N. D., Gundlach, C. W. t., Caivano, A. R., Bornmann, W. G., Maxwell, D. S., McIntyre, B. W., Willerson, J. T., and Dixon, R. A. (2013) Small molecule agonist of very late antigen-4 (VLA-4) integrin induces progenitor cell adhesion. J Biol Chem 288, 19414-19428. VCAM-1 or ICAM-1 ligand in 50 μL of 50 mM Tris-HCl (pH 7.4), 150 mM NaCl, (TBS) was added to wells of a 96-well plate and allowed to coat overnight at 4° C. To maximize the window to evaluate agonist activity, a sub-optimal coating concentration of ligand was used, typically between 0.5 and 5 μg/mL in 50 μL TBS for VCAM-1 and ICAM-1 respectively. This ligand concentration corresponded approximately to that which would yield≤ 5% adhesion as determined by dose-response curves. Briefly, 2×10^6 cells were labeled for 30 minutes with calcein-AM (Molecular Probes), washed, resuspended in binding buffer, and added to triplicate wells of ligand-coated plates (2×10^5 cells/well) that had been blocked with 2% BSA. After a 30-minute incubation at 37° C., the plates were washed 3 times with binding buffer, the adherent cells were lysed, and fluorescence was measured on a Tecan Safire^2 plate reader. The binding buffer was PBS with 1 mM MgCl2, 50% FBS for α4β1/VCAM-1 assays and PBS with 2 mM MgCl2, 5 mM EGTA, 50% FBS for αLβ2/ICAM-1 assays. EC50 is defined as the concentration of compound required to achieve 50% of the maximal response.
THI0019 and THI0349 (average 11 μM) reported values here were obtained under the assay conditions reported herein and ran higher in the presence of serum than those values under different assay conditions. […] Relative to THI0019 (average 33 μM) as a control against CS1, the ratio of (compound activity/control) is as follows: Group I< or =1. Group II at least a ratio of >1 up to 2× that of THI0019 ran on the same plate; Group III is >2× of THI0019 but less than 5×; and Group IV>5× of THI0019 (with an upper limit of approximately 200 mM). In relation to LAD (Leukocyte Adhesion Deficiency), LFA-1 ratios are determined by dividing the relative fluorescence units (RFU) of each compound over that of the reference standard of THI0349, (RFU Compound/RFU of THI0349). Against LFA-1, the signal for THI0349 at 3 μM was compared to the claimed compounds at the same concentration.

α4β1/VCAM-1 = target: T2, α4β1/VCAM-1 (Homo sapiens, UniProt P05556+P13612); assay: Static cell adhesion assay, Jurkat cells on VCAM-1 (α4β1/VCAM-1); type: cell-based; details: ratio compound activity/control THI0019 (average 33 μM) run on the same plate
T2 construct: The Jurkat (VCAM-1 assays) and HSB (ICAM-1 assays) cell lines were obtained from American Type Culture Collection; endogenous in cells; host or cells: Jurkat cells (ATCC)
T2 sequence (P13612 34-1032): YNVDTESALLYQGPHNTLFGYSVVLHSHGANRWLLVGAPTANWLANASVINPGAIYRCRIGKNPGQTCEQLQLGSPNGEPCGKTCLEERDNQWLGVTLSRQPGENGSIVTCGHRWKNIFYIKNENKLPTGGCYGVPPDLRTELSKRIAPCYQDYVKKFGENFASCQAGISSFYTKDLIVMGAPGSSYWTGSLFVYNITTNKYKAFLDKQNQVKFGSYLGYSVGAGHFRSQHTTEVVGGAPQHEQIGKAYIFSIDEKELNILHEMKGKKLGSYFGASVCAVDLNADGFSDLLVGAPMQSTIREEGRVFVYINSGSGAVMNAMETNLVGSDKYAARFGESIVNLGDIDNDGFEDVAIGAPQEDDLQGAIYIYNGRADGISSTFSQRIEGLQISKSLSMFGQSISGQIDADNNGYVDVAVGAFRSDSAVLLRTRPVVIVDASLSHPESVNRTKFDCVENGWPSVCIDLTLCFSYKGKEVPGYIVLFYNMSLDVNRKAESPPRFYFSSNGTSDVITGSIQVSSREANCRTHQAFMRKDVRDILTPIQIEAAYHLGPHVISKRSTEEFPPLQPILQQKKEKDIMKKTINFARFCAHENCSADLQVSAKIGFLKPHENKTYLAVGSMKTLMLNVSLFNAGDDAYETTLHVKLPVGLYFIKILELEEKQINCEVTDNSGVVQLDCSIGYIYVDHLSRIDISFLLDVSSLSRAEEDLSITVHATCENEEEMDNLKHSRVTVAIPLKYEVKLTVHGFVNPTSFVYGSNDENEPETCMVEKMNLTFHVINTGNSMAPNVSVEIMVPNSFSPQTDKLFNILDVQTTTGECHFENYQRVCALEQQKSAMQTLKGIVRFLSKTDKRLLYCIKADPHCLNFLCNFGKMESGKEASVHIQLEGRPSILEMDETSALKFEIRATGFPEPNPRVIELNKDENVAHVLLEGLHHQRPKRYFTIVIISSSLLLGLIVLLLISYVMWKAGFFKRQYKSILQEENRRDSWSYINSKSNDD
T2 sequence (P05556 21-798): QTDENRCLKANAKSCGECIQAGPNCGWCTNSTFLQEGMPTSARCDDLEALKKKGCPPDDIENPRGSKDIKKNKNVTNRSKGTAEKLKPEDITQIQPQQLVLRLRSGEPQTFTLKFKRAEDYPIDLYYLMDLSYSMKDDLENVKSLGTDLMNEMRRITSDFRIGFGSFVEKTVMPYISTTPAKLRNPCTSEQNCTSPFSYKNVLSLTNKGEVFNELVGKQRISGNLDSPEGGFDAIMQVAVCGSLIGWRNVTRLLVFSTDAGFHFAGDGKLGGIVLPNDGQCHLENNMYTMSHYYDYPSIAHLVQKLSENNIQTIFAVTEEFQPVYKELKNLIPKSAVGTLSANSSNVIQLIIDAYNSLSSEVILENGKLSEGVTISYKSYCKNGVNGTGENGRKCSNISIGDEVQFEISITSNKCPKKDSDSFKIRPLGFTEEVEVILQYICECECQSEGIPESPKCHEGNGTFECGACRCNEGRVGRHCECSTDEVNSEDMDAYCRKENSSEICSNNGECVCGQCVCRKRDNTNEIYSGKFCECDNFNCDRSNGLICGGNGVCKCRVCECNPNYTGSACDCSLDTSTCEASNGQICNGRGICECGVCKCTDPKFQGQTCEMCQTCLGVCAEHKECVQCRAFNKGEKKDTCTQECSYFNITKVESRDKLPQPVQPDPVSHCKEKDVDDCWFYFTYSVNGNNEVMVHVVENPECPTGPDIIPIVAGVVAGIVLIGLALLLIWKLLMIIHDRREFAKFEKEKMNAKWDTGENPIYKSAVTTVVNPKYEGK
Experimental: as §1, §2

SMILES: COc1ccc(CN(Cc2ccc(OC)cc2)C(=O)CN2CCN(C(=O)Cc3cccc(OC)c3)CC2=O)cc1 [N,N-bis(4-methoxybenzyl)-2-(4-(2-(3-methoxyphenyl)acetyl)-2-oxopiperazin-1-yl)acetamide]
LAD Raw Fluorescence Units against LFA-1; Ratio of raw counts Compound/THI0349 (LFA-1): 0.5 fold response
Average Ratio Compound to THI0019 (Activity against CS1) (α4β1/VCAM-1): Group III (Group III is >2× of THI0019 but less than 5×)

SMILES: COc1cccc(CN(Cc2cccc(OC)c2)C(=O)CCCCN2CCN(C(=O)OCc3ccccc3)CC2)c1 [benzyl 4-(5-(bis(3-methoxybenzyl)amino)-5-oxopentyl)piperazine-1-carboxylate]
LAD Raw Fluorescence Units against LFA-1; Ratio of raw counts Compound/THI0349 (LFA-1): 3.9 fold increased response
Average Ratio Compound to THI0019 (Activity against CS1) (α4β1/VCAM-1): Group II (Group II at least a ratio of >1 up to 2× that of THI0019 ran on the same plate)

SMILES: COc1ccc(CN(Cc2ccc(OC)cc2)C(=O)CN2CCN(C(=O)OCc3cccc(OC)c3)CC2)cc1 [3-methoxybenzyl 4-(2-(bis(4-methoxybenzyl)amino)-2-oxoethyl)piperazine-1-carboxylate]
LAD Raw Fluorescence Units against LFA-1; Ratio of raw counts Compound/THI0349 (LFA-1): 2.2 fold increased response
Average Ratio Compound to THI0019 (Activity against CS1) (α4β1/VCAM-1): Group II (Group II at least a ratio of >1 up to 2× that of THI0019 ran on the same plate)

More lines, main results first:

LAD Raw Fluorescence Units against LFA-1; Ratio of raw counts Compound/THI0349 (LFA-1): 0.19 fold response
SMILES: COc1ccc(CN(CC(C)C)C(=O)CN2CCN(CC(=O)N(Cc3ccc(OC)cc3)CC(C)C)C(=O)C2)cc1 [2,2′-(2-oxopiperazine-1,4-diyl)bis(N-isobutyl-N-(4-methoxybenzyl)acetamide)]
Average Ratio Compound to THI0019 (Activity against CS1) (α4β1/VCAM-1): Group III (Group III is >2× of THI0019 but less than 5×)

LAD Raw Fluorescence Units against LFA-1; Ratio of raw counts Compound/THI0349 (LFA-1): 0.6 fold response
SMILES: COc1ccc(CN(Cc2ccc(OC)cc2)C(=O)CN2CCN(C(=O)c3cccc(OC)c3)CC2=O)cc1 [2-(4-(3-methoxybenzoyl)-2-oxopiperazin-1-yl)-N,N-bis(4-methoxybenzyl)acetamide]
Average Ratio Compound to THI0019 (Activity against CS1) (α4β1/VCAM-1): Group IV (Group IV>5× of THI0019 (with an upper limit of approximately 200 mM))
